For 20 compounds, EC50 and IC50 results are on record in patent US20150344457A1, “METHODS OF INHIBITING PRMT5” (EPIZYME, INC., priority 2012, published 2015).

The subject of test [1] is Z-138 cells. As to the kind of experiment: Z-138 Methylation Assay (In Cell Western for symmetric di-methyl arginine and DNA content). To be noted: Homo sapiens. The test is classed as cell-based. The source says:
Z-138 suspension cells were purchased from ATCC (American Type Culture Collection, Manassas, Va.). RPMI/Glutamax medium, penicillin-streptomycin, heat inactivated fetal bovine serum, and D-PBS were purchased from Life Technologies, Grand Island, N.Y., USA. Odyssey blocking buffer, 800CW goat anti-rabbit IgG (H+L) antibody, and Licor Odyssey infrared scanner were purchased from Licor Biosciences, Lincoln, Nebr., USA. Symmetric di-methyl arginine antibody was purchased from EMD Millipore, Billerica, Mass., USA. 16% Paraformaldehyde was purchased from Electron Microscopy Sciences, Hatfield, Pa., USA.
Z-138 suspension cells were maintained in growth medium (RPMI 1640 supplemented with 10% v/v heat inactivated fetal bovine serum and 100 units/mL penicillin-streptomycin) and cultured at 37° C. under 5% CO2.
Cell Treatment, in Cell Western (ICW) for Detection of Symmetric Di-Methyl Arginine and DNA Content.
Z-138 cells were seeded in assay medium at a concentration of 50,000 cells per mL to a 384-well cell culture plate with 50 μL per well. Compound (100 nL) from 384 well source plates was added directly to 384 well cell plate. Plates were incubated at 37° C., 5% CO2 for 96 hours. After four days of incubation, 40 μL of cells from incubated plates were added to poly-D-lysine coated 384 well culture plates (BD Biosciences 356697). Plates were incubated at room temperature for 30 minutes then incubated at 37° C., 5% CO2 for 5 hours. After the incubation, 40 μL per well of 8% paraformaldehyde in PBS (16% paraformaldahyde was diluted to 8% in PBS) was added to each plate and incubated for 30 minutes. Plates were transferred to a Biotek 405 plate washer and washed 5 times with 100 μL per well of wash buffer (1×PBS with 0.1% Triton X-100 (v/v)). Next 30 μL per well of Odyssey blocking buffer were added to each plate and incubated 1 hour at room temperature. Blocking buffer was removed and 20 μL per well of primary antibody was added (symmetric di-methyl arginine diluted 1:100 in Odyssey buffer with 0.1% Tween 20 (v/v)) and plates were incubated overnight (16 hours) at 4° C. Plates were washed 5 times with 100 μL per well of wash buffer. Next 20 μL per well of secondary antibody was added (1:200 800CW goat anti-rabbit IgG (H+L) antibody, 1:1000 DRAQS (Biostatus limited) in Odyssey buffer with 0.1% Tween 20 (v/v)) and incubated for 1 hour at room temperature. The plates were washed 5 times with 100 μL per well wash buffer then 1 time with 100 μL per well of water. Plates were allowed to dry at room temperature then imaged on the Licor Odyssey machine which measures integrated intensity at 700 nm and 800 nm wavelengths. Both 700 and 800 channels were scanned.
First, the ratio for each well was determined by:
Each plate included fourteen control wells of DMSO only treatment (minimum inhibition) as well as fourteen control wells for maximum inhibition treated with 3 μM of a reference compound (Background wells). The average of the ratio values for each control type was calculated and used to determine the percent inhibition for each test well in the plate. Reference compound was serially diluted three-fold in DMSO for a total of nine test concentrations, beginning at 3 μM. Percent inhibition was determined and IC50 curves were generated using triplicate wells per concentration of compound.

The test system of test [2] is Z-138 cells. As to the kind of experiment: Z-138 Proliferation Assay (Cell Titer Glo, 5 days). The test is classed as cell-based. To be noted: Homo sapiens. An excerpt:
Z-138 Proliferation Assay
Z-138 suspension cells were purchased from ATCC (American Type Culture Collection, Manassas, Va.). RPMI/Glutamax medium, penicillin-streptomycin, heat inactivated fetal bovine serum were purchased from Life Technologies, Grand Island, N.Y., USA. V-bottom polypropylene 384-well plates were purchased from Greiner Bio-One, Monroe, N.C., USA. Cell culture 384-well white opaque plates were purchased from Perkin Elmer, Waltham, Mass., USA. Cell-Titer Gb® was purchased from Promega Corporation, Madison, Wis., USA. SpectraMax M5 plate reader was purchased from Molecular Devices LLC, Sunnyvale, Calif., USA.
Z-138 suspension cells were maintained in growth medium (RPMI 1640 supplemented with 10% v/v heat inactivated fetal bovine serum and cultured at 37° C. under 5% CO2. Under assay conditions, cells were incubated in assay medium (RPMI 1640 supplemented with 10% v/v heat inactivated fetal bovine serum and 100 units/mL penicillin-streptomycin) at 37° C. under 5% CO2.
For the assessment of the effect of compounds on the proliferation of the Z-138 cell line, exponentially growing cells were plated in 384-well white opaque plates at a density of 10,000 cells/ml in a final volume of 50 μl of assay medium. A compound source plate was prepared by performing triplicate nine-point 3-fold serial dilutions in DMSO, beginning at 10 mM (final top concentration of compound in the assay was 20 μM and the DMSO was 0.2%). A 100 nL aliquot from the compound stock plate was added to its respective well in the cell plate. […] After addition of compounds, assay plates were incubated for 5 days at 37° C., 5% CO2, relative humidity >90%.
Cell viability was measured by quantitation of ATP present in the cell cultures, adding 35 μl of Cell Titer Glo® reagent to the cell plates. Luminescence was read in the SpectraMax M5 microplate reader. The concentration of compound inhibiting cell viability by 50% was determined using a 4-parametric fit of the normalized dose response curves.
(ATP-based viability assays read luminescence as a measure of living cells.)

The next test deals with T1, PRMT5/MEP50 (Homo sapiens, UniProt O14744).
T1 construct: Expressed full-length human Flag-PRMT5/6His-MeP50 protein complex was purified; made in house; host or cells: Spodoptera frugiperda (SF9) insect cells, baculovirus (pDEST8)
T1 sequence (O14744 with tags, fused parts or gaps): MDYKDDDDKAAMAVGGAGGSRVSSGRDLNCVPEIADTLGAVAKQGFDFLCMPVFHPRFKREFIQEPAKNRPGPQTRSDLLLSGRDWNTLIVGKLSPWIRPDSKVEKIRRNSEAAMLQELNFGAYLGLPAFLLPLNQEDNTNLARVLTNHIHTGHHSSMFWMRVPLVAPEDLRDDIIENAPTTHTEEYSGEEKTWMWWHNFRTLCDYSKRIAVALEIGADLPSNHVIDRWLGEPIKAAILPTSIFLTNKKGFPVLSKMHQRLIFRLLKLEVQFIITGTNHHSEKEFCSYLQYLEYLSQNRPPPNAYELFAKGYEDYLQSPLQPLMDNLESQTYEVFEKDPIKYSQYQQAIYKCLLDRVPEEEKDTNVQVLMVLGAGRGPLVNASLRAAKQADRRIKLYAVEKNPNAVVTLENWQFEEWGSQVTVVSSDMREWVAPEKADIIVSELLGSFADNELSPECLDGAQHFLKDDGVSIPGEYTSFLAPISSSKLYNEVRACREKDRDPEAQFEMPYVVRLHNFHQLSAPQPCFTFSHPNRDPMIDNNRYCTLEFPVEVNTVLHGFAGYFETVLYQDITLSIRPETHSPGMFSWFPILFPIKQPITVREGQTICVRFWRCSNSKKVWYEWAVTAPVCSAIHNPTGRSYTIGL
T1 sequence (Q9BQA1 with tags, fused parts or gaps partner limits assumed): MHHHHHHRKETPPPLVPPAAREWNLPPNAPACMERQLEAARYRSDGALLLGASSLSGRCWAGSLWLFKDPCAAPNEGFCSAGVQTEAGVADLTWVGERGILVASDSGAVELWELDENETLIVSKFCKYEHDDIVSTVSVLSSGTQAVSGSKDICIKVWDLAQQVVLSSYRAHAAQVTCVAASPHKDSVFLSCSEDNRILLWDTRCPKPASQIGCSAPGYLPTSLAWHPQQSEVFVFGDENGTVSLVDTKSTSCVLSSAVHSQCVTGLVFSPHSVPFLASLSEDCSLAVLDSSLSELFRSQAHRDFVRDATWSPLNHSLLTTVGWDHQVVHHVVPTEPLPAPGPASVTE
As to the kind of experiment: PRMT5 Biochemical Assay (PRMT5/MEP50 enzyme assay on peptide substrate, 3H-SAM Flashplate). To be noted: read-out: Biochemical IC50.

Where [3] appears, read: Table A-2, 96 hours, symmetric di-methyl arginine, read-out: ICW EC50.
[4] abbreviates: Table A-2, PRMT5/MEP50 4 nM, 3H-SAM 75 nM, peptide 40 nM.

Molecules are shown by their SMILES. Where two headings read alike, the source gives them in different places.

The term EC50 denotes the concentration needed to bring the measured effect to its halfway point. With `Cn1cnc2ccc(OCC(=O)NCC(O)CN3CCc4ccccc4C3)cc21` (stereo not shown) [Compound A30], the EC50 fell in the range of 101 to 1000 nM in the test on Z-138 cells [1] (setting [3]) and 10000 to 50000 nM in the test on Z-138 cells [2] (120 h, Table A-2, 5 days, top concentration 20 μM).

In general, IC50 refers to the concentration that gives 50% inhibition. Turning to `Cn1nccc1-c1cccc(CC(=O)NCC(O)CN2CCc3ccccc3C2)c1` (stereo not shown) [Compound A54], the IC50 on PRMT5/MEP50 (setting [4]) was 101 to 1000 nM. For the same compound, the EC50 in the test on Z-138 cells [1] (setting [3]) is 101 to 1000 nM.

As for `O=C(Cc1cccc2cccnc12)NCC(O)CN1CCc2ccccc2C1` (stereo not shown) [Compound A60], the IC50 on PRMT5/MEP50 (setting [4]) lay within 101 to 1000 nM. Moreover, in the test on Z-138 cells [1] (setting [3]), the EC50 was 1000 to 10000 nM.

Consider `Cn1cnc2ccc(NCC(=O)NCC(O)CN3CCc4ccccc4C3)cc21` (stereo not shown) [Compound A69], for which the IC50 on PRMT5/MEP50 (setting [4]) lay within 101 to 1000 nM. The EC50 in the test on Z-138 cells [1] (setting [3]) was 1000 to 10000 nM.

For `O=C(COc1ccccc1N1CCOCC1)NC[C@@H](O)CN1CCc2ccccc2C1` [Compound A78], at PRMT5/MEP50 (setting [4]), the IC50 lay in the range of 101 to 1000 nM. Besides, in the test on Z-138 cells [1] (setting [3]), the EC50 lay within 101 to 1000 nM.

Take `CN1CCN(c2ccccc2OCC(=O)NC[C@@H](O)CN2CCc3ccccc3C2)CC1` [Compound A85]: the IC50 on PRMT5/MEP50 (setting [4]) fell in the range of 1000 to 10000 nM. Also, in the test with Z-138 cells [1] (setting [3]), the EC50 lay in the range of 1000 to 10000 nM.

On to `CN(C)CCOc1ccccc1OCC(=O)NC[C@@H](O)CN1CCc2ccccc2C1` [Compound A89], for which the IC50 at PRMT5/MEP50 (setting [4]) was in the range of 101 to 1000 nM. Moreover, the EC50 with Z-138 cells [1] (setting [3]) fell in the range of 1000 to 10000 nM.

In the case of `Cn1ccnc1-c1ccccc1OCC(=O)NCC(O)CN1CCc2ccccc2C1` (stereo not shown) [Compound A138], the IC50 on PRMT5/MEP50 (setting [4]) lay within 101 to 1000 nM. Further, in the test on Z-138 cells [1] (setting [3]), the EC50 is 1000 to 10000 nM.

For the compound `Cc1cn(C)c2cccc(OCC(=O)NCC(O)CN3CCc4ccccc4C3)c12` (stereo not shown) [Compound A146], the IC50 on PRMT5/MEP50 (setting [4]) was under 100 nM. Also, the EC50 in the test with Z-138 cells [1] (setting [3]) was 101 to 1000 nM.

In the case of `O=C(COc1ccccc1S(=O)(=O)N1CCOCC1)NCC(O)CN1CCc2ccccc2C1` (stereo not shown) [Compound A149], on PRMT5/MEP50 (setting [4]), the IC50 is under 100 nM. For the same compound, in the test with Z-138 cells [1] (setting [3]), the EC50 was in the range of 101 to 1000 nM.

As for `COc1cc(Cl)cc(-c2cccc(OCC(O)CN3CCc4ccccc4C3)c2)c1` (stereo not shown) [Compound D110], the IC50 at PRMT5/MEP50 (Table D-2) lay in the range of 101 to 1000 nM. Further, in the test with Z-138 cells [1] (Table D-2, read-out: ICW EC50), the EC50 was over 20000 nM.

`N#CCc1cccc(-c2cccc(OCC(O)CN3CCc4ccccc4C3)c2)c1` (stereo not shown) [Compound D111]: at PRMT5/MEP50 (Table D-2), the IC50 lay within 101 to 1000 nM. In the test with Z-138 cells [1] (Table D-2, read-out: ICW EC50), the EC50 lay within 1000 to 10000 nM.

Consider `Cn1cc2ccc(-c3cccc(OCC(O)CN4CCc5ccccc5C4)c3)cc2n1` (stereo not shown) [Compound D114], for which the IC50 on PRMT5/MEP50 (Table D-2) lay within 101 to 1000 nM. In addition, the EC50 in the test with Z-138 cells [1] (Table D-2, read-out: ICW EC50) is over 20000 nM.

On to `OC(COc1cccc(-c2ccccc2F)c1)CN1CCc2ccccc2C1` (stereo not shown) [Compound D154], for which the IC50 on PRMT5/MEP50 (Table D-2) is 101 to 1000 nM. Besides, the EC50 with Z-138 cells [1] (Table D-2, read-out: ICW EC50) fell in the range of 1000 to 10000 nM.

For the compound `O=C(Nc1cccc(OCC(O)CN2CCc3ccccc3C2)c1)c1cccnn1` (stereo not shown) [Compound D164], the IC50 at PRMT5/MEP50 (Table D-2) was 1000 to 10000 nM. Moreover, the EC50 in the test with Z-138 cells [1] (Table D-2, read-out: ICW EC50) lay within 1000 to 10000 nM.

For the compound `Cn1cnc2ccc(-c3cccc(OC[C@@H](O)CN4CCc5ccccc5C4)c3)cc21` [Compound D173], the EC50 lay within 1000 to 10000 nM in the test with Z-138 cells [1] (Table D-2, read-out: ICW EC50) and 1000 to 10000 nM in the test on Z-138 cells [2] (Table D-2).

Turning to `O[C@H](COc1cccc(-c2cccc3cccnc23)c1)CN1CCc2ccccc2C1` [Compound D258], the EC50 in the test with Z-138 cells [1] (Table D-2, read-out: ICW EC50) was 1000 to 10000 nM; in the test on Z-138 cells [2] (Table D-2), over 20000 nM.

On to `Cn1cncc1C(=O)Nc1cccc(OC[C@H](O)CN2CCc3ccccc3C2)c1` [Compound D259], for which the EC50 is 101 to 1000 nM with Z-138 cells [1] (Table D-2, read-out: ICW EC50) and 10000 to 40000 nM in the test with Z-138 cells [2] (Table D-2).

Take `Cn1cnc2ccc(-c3ccnc(NC[C@@H](O)CN4CCc5ccccc5C4)c3)cc21` [Compound D276]: the EC50 in the test with Z-138 cells [1] (Table D-2, read-out: ICW EC50) fell in the range of 1000 to 10000 nM; with Z-138 cells [2] (Table D-2), 1000 to 10000 nM.

In the case of `O=C(NCC(O)CN1Cc2ccccc2C1)c1cccc(NC2CCOCC2)c1` (stereo not shown) [Compound E8.], at PRMT5/MEP50 (Table E-2), the IC50 was in the range of 101 to 1000 nM. For the same compound, the EC50 in the test with Z-138 cells [1] (Table E-2, read-out: ICW EC50) was 101 to 1000 nM.
